Legend:
[1] = Binding affinity to human RFC expressed in Chinese hamster PC43-10 cells assessed as antiproliferative activity measured as reduction in cell growth after 96 hrs by Cell-Titer Blue assay
[2] = Binding affinity to human FRalpha expressed in Chinese hamster RT16 cells assessed as antiproliferative activity measured as reduction in cell growth after 96 hrs by Cell-Titer Blue assay
[3] = Binding affinity to human PCFT expressed in Chinese hamster R2/PCFT4 cells assessed as antiproliferative activity measured as reduction in cell growth after 96 hrs by Cell-Titer Blue assay

| SMILES | IC50 [1] | IC50 [2] | IC50 [3] |
| --- | --- | --- | --- |
| CN(Cc1cc2c(=O)[nH]c(N)nc2[nH]1)C(=O)c1csc(C(=O)N[C@@H](CCC(=O)O)C(=O)O)c1 | > 1 µM | > 1 µM | > 1 µM |
| CN(Cc1cc2c(=O)[nH]c(N)nc2[nH]1)C(=O)c1ccc(C(=O)N[C@@H](CCC(=O)O)C(=O)O)cc1 | > 1 µM |  | 0.049 µM |
| CN(Cc1cc2c(=O)[nH]c(N)nc2[nH]1)C(=O)c1cccc(C(=O)N[C@@H](CCC(=O)O)C(=O)O)c1 | > 1 µM | 0.0018 µM | 0.747 µM |
| CN(Cc1cc2c(=O)[nH]c(N)nc2[nH]1)S(=O)(=O)c1ccc(C(=O)N[C@@H](CCC(=O)O)C(=O)O)cc1 | > 1 µM | > 1 µM | > 1 µM |
| CN(Cc1cc2c(=O)[nH]c(N)nc2[nH]1)C(=O)c1cc(C(=O)N[C@@H](CCC(=O)O)C(=O)O)cs1 | > 1 µM | 0.867 µM | > 1 µM |
| CN(Cc1cc2c(=O)[nH]c(N)nc2[nH]1)C(=O)c1ccc(C(=O)N[C@@H](CCC(=O)O)C(=O)O)s1 | > 1 µM | 0.0078 µM | > 1 µM |

Source: BindingDB's records for doi:10.1016/j.bmc.2019.115125 (Duquesne University, 2019)
